Assay: Storage stability of IPBC in Dowanol TPM solution with cobalt dryer and stabilizer, IPBC amount by HPLC
Format: physicochemical
Conditions: solution in Dowanol TPM with 10% by weight IPBC, 5% by weight Octasoligen-Cobalt 8, 5% by weight stabilizer; for Amount of IPBC (2 weeks, 40° C.): after two weeks storage at 40° C.; for Amount of IPBC (start): at the beginning
Experimental: A solution is prepared in Dowanol TPM (tripropylene glycol methyl ether), containing 10% by weight of iodopropargyl butylcarbamate, 5% by weight of Octasoligen-Cobalt 8 (Borchers, Langenfeld, Germany) and 5% by weight of the stabilizer specified in Table 1. The compositions are stored at 40° C. The amount of IPBC was determined by means of HPLC at the beginning and after two weeks.

Amount of IPBC (2 weeks, 40° C.)	Amount of IPBC (start)	Structure (SMILES)
9.3%	9.9%	Cc1ccc(O)c(-n2nc3ccccc3n2)c1 [Example 4]
9.5%	9.9%	CC(C)(C)CC(C)(C)c1ccc(O)c(-n2nc3ccccc3n2)c1 [Example 3]
10.4%	11.3%	OCCc1ccc(O)c(-n2nc3ccccc3n2)c1 [Example 1]
9.3%	9.9%	C=C(C)C(=O)OCCc1ccc(O)c(-n2nc3ccccc3n2)c1 [Example 2]

Structure (SMILES)	Amount of IPBC (2 weeks, 40° C.)	Amount of IPBC (start)
CC(C)(C)c1ccc(O)c(-n2nc3ccccc3n2)c1 [Example 5]	9.8%	9.8%

Reference: patent US20090036555A1, “Stabilization of iodine biocides” (priority 2005, published 2009)
